Tests used:
[1] = target: T1, human P2Y1 purinergic receptor (Homo sapiens, UniProt P47900); test: R-CEPIAer ER calcium assay, CHO cells co-transfected with P2Y1 receptor; format: cell-based; conditions: 5 μM UCL 1684, 1 μM ATP, read-out: Fractional inhibition of second ATP response
T1 construct: expressed in transfected cells; host or cells: CHO cells, transiently co-transfected with pCMV R-CEPIAer
Method: [Worded in the source for another target; used here, by the source, with some conditions changed.] (§1) The binding of antagonists to Gq-coupled receptors was determined by measuring IP3-mediated calcium depletion from the endoplasmic reticulum (ER). This was accomplished using CHO-K1 cells stably transfected with human M3 muscarinic acetylcholine receptor (CEM3000000, cDNA Resource Center, Bloomsburg University) and R-CEPIAer, a low affinity ER-targeted calcium indicator fluorescent protein ([Suzuki et al., 2014]). R-CEPIAer reporting of ER calcium concentration was assessed using 564 nm excitation light (>590 long-pass emission) at 20 second intervals on a Nikon swept-field confocal microscope using slit-scan mode, 2x2 Binning, and 100 millisecond frames. F/Fmax was fluorescence intensity normalized to maximal fluorescence intensity during the experiment. The response of cells to Gq-coupled receptor agonist were measured as the change in F/Fmax (ΔF/Fmax) from preagonist value to fluorescence minimum during agonist application (that occurs by IP3-mediated ER calcium depletion). […] Perfusion of each agonist application was for 2 min, while the antagonist overlapped and preceded the second agonist application by 3 min. […] IC50 was calculated by assaying fractional inhibition using a dose-response of antagonist concentrations (i.e. Figure 1D ). […]

M1 muscarinic receptor = target: T2, M1 muscarinic receptor (Homo sapiens, UniProt P11229); test: R-CEPIAer ER calcium assay, CHO cells transiently transfected with M1 receptor; format: cell-based
T2 construct: expressed in transfected cells; host or cells: CHO cells, transiently co-transfected with pCMV R-CEPIAer
T2 sequence (P11229 1-460): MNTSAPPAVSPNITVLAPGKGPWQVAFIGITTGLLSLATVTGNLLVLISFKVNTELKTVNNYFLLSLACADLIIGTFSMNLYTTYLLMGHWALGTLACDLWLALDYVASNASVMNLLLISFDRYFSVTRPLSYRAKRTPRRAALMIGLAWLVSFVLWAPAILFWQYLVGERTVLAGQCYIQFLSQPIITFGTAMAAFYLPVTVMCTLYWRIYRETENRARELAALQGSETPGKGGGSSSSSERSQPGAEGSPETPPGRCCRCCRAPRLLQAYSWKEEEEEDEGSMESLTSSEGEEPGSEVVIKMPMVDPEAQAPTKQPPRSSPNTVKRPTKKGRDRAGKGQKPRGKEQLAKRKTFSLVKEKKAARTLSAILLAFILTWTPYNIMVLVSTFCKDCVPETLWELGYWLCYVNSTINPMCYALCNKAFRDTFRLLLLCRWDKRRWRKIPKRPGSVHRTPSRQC
Method: [Worded in the source for another target; used here, by the source, with some conditions changed.] as §1

T1 sequence (P47900 whole entry): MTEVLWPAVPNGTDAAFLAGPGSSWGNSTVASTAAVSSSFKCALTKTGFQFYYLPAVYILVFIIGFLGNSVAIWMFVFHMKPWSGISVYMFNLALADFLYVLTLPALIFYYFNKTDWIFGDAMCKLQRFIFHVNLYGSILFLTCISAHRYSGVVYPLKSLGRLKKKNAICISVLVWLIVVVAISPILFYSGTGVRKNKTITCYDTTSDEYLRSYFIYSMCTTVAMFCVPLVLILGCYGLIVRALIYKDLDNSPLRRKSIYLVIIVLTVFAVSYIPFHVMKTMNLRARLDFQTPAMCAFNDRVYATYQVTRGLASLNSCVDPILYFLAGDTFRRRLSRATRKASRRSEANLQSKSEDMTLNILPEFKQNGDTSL

## c1cc2cc(c1)C[n+]1ccc(c3ccccc31)NCc1ccc(cc1)CNc1cc[n+](c3ccccc13)C2 [UCL 1684, 6,12,19,20,25,26-Hexahydro-5,27:13,18:21,24-trietheno-11,7-metheno-7H-dibenzo [b,n] [1,5,12,16]tetraazacyclotricosine-5,13-diium dibromide]
[1]
  inhibition at 5 µM: 6.7 ± 6%
M1 muscarinic receptor
  IC50: 120 nM
M1 muscarinic receptor; 0.5 μM carbachol
  Hill slope of inhibition curve, M1 receptor: 0.67 ± 0.5

From PMC7525093, “Bis-Quinolinium Cyclophane Blockers of SK Potassium Channels Are Antagonists of M3 Muscarinic Acetylcholine Receptors” (Frontiers in Pharmacology, 2020)
